# Laboratory results reported in patent US20240390293A1, “DERIVATIVES OF THE PROTECTIN 10S,17S-DIHDA (PDX) AND USE THEREOF AS ANTIVIRAL, ANTI-INFLAMMATORY, AND ANTI-DIABETIC AGENTS” (priority 2021, published 2024).
# Like-named read-outs stand apart in the source and are kept apart here.
# Experiments:
# [1] = system: SARS-CoV-2; experiment: Plaque Reduction Assay (PRA) of SARS-CoV-2 replication on VERO E6 cells; type: cell-based
# [2] = system: iNOS; experiment: LPS-induced iNOS activity (nitrite production, Griess method) in J774 macrophages; type: cell-based, mice; conditions: for nitrite production in LPS-induced J774 mice macrophages: LPS 2.5 ng/ml, 18 h, dose-dependent; for IC50: Mus musculus
# Experimental: J774A.1 macrophages are grown in DMEM, supplemented with 10% Bovine Growth Serum (BGS) and 1% penicillin-streptomycin (PS). The J774A.1 macrophages are subsequently stimulated with LPS 2.5 ng/ml in DMEM supplemented with 10% BGS and 1% PS for 16 h-18 h. […] After incubation, the level of inflammation is evaluated by measuring the nitrite content in the medium by using the Griess method and normalized by protein concentration.
# [3] = system: SARS-CoV-2; experiment: SARS-CoV-2 infected hamsters: viral titers and weight variation; type: in vivo, Golden Syrian hamsters
# Experimental: Animal Studies. 5-6 Week-old Golden Syrian hamsters were infected with 4.5 log PFU of original SARS-CoV-2 strain. On days 1, 2 and 3, or 1 to 5 post-infection, the animals were treated intraperitoneally with either Remdesivir (15 mg/kg), analog RM-598-48 (50 mg/kg), Remdesivir (15 mg/kg)+analog RM-598-48 (50 mg/kg), analog RM-598-44 (50 mg/kg), or with vehicle only (FIG. 28). The hamsters were monitored daily over a period of 14 days for clinical symptoms and weight loss. On day 4 post-infection, nasal turbinates and lungs were harvested to assess viral replication. All animal studies were approved by the Animal Protection Committee of the Centre Hospitalier Universitaire de Québec according to the Canadian Council on Animal Care guidelines.
# Viral titers. Viral titers were determined in cell culture to characterize the presence of live virus. Ten-fold dilutions of nasal turbinates and lung homogenates were performed in infection medium. After one week of infection, titers were determined and reported in TCID50 per gram of organ.
# [4] = system: influenza A/Puerto Rico/8/34 (H1N1); type: cell-based; conditions: A549 cells, 24 hours
# [5] = system: interleukin-6 (IL-6) release; conditions: skeletal muscle cells; PDX at submicromolar concentrations; cited from earlier work
# [6] = Severe acute respiratory syndrome coronavirus 2, Vero C1008, read-out: SARS-COV-2 Inhibition (%)
# [7] = 50 mg/kg IP from day 1 until day 5 post-infection
# [8] = Severe acute respiratory syndrome coronavirus 2, Vero C1008, VERO E6 cells, plaque reduction assay, read-out: SARS-COV-2 Inhibition IC50
# [9] = LPS-stimulated J774 macrophages, nitrite by Griess method, read-out: Anti-inflammatory Activity on iNOS IC50
structure (smiles),measurement,setting,value
CC/C=C\C[C@H](O)C#C/C=C\C#C[C@@H](O)CCO [PDX-Al-1],inhibition at 5 µM,[1]; [6],40%
same,inhibition at 50 µM,[1]; [6],30%
same,nitrite production in LPS-induced J774 mice macrophages,[2],reduced nitrite production
same,IC50,"[2]; J774, read-out: Anti-inflammatory Activity on iNOS IC50",18 µM
same,"weight loss (weight variation, % of initial weight)",[3]; [7],"tendency to limit weight loss, but not in a significant manner"
CC/C=C\C[C@H](O)/C=C/C=C\C=C\[C@@H](O)CCNCCC [PDX-20],nitrite production in LPS-induced J774 mice macrophages,[2],reduced nitrite production
CC/C=C\C[C@H](O)/C=C/C=C\C=C\[C@@H](O)CCNCCCCCC [PDX-6],IC50,[1]; [8],29 µM
same,nitrite production in LPS-induced J774 mice macrophages,[2],reduced nitrite production
same,IC50,[2]; [9],50 µM
"CC/C=C\C[C@H](O)\C=C/C=C/C=C/[C@H](O)C/C=C\C/C=C\CCC(=O)O [PD1, protectin D1]",decrease in the viral charge,[4]; 50 μM,10%
same,release of interleukin-6 (IL-6),[5],ineffective
CC/C=C\C[C@H](O)/C=C/C=C\C=C\[C@@H](O)CCOc1cccc(CC(=O)OC)c1 [PDX-22],nitrite production in LPS-induced J774 mice macrophages,[2],reduced nitrite production
CC/C=C\C[C@H](O)/C=C/C=C\C=C\[C@@H](O)CCOc1ccc(C(=O)O)cc1 [PDX-19],nitrite production in LPS-induced J774 mice macrophages,[2],reduced nitrite production
CC/C=C\C[C@H](O)/C=C/C=C\C=C\[C@@H](O)CCOc1ccc(C)cc1 [PDX-1],nitrite production in LPS-induced J774 mice macrophages,[2],reduced nitrite production
same,IC50,[2]; [9],11 µM
"O=c1c(O)c(-c2ccc(O)c(O)c2)oc2cc(O)cc(O)c12 [Quercetin, reference compound]",nitrite production in LPS-induced J774 mice macrophages,[2],reduced nitrite production
CC/C=C\C[C@H](O)/C=C/C=C\C=C\[C@@H](O)CCOc1ccc(CC(=O)OC)cc1 [PDX-2],IC50,[1]; [8],33 µM
same,nitrite production in LPS-induced J774 mice macrophages,[2],reduced nitrite production
same,IC50,[2]; [9],64 µM
same,"weight loss (weight variation, % of initial weight)",[3]; [7],significantly limit weight loss
same,"weight loss (weight variation, % of initial weight)","[3]; 50 mg/kg IP on days 1, 2 and 3 post-infection, significant at days 3, 9, 11, 12 and 14",significantly limit weight loss
same,viral loads in nasal turbinates,"[3]; 50 mg/kg IP on days 1, 2 and 3 post-infection, titers on day 4, vs untreated hamsters",significantly different from the untreated hamsters
CC/C=C\C[C@H](O)/C=C/C=C\C=C\[C@@H](O)CCN1CCCCC1 [PDX-7],nitrite production in LPS-induced J774 mice macrophages,[2],reduced nitrite production
CC/C=C\C[C@H](O)/C=C/C=C\C=C\[C@@H](O)CCOc1ccc2ccc(=O)oc2c1 [PDX-18],nitrite production in LPS-induced J774 mice macrophages,[2],reduced nitrite production
CC/C=C\C[C@H](O)/C=C/C=C\C=C\[C@@H](O)CCOc1ccc(CC(=O)NC)cc1 [PDX-23],nitrite production in LPS-induced J774 mice macrophages,[2],reduced nitrite production
CC/C=C\C[C@H](O)/C=C/C=C\C=C\[C@@H](O)CCOc1ccncc1 [PDX-17],nitrite production in LPS-induced J774 mice macrophages,[2],reduced nitrite production
"CCC(CC)COC(=O)[C@H](C)N[P@](=O)(OC[C@H]1O[C@@](C#N)(c2ccc3c(N)ncnn23)[C@H](O)[C@@H]1O)Oc1ccccc1 [Remdesivir, reference compound]",IC50,"[1]; Severe acute respiratory syndrome coronavirus 2, Vero C1008, read-out: SARS-COV-2 Inhibition IC50",3.9 µM
CC/C=C\C[C@H](O)/C=C/C=C\C=C\[C@@H](O)CCOc1ccc(CC(N)=O)cc1 [PDX-24],nitrite production in LPS-induced J774 mice macrophages,[2],reduced nitrite production
same,decrease in the viral charge,[4]; 50 μM,39%
CC/C=C\C[C@H](O)/C=C/C=C\C=C\[C@@H](O)CCOc1ccc(C(=O)OC)cc1 [PDX-16],nitrite production in LPS-induced J774 mice macrophages,[2],reduced nitrite production
"O=C1c2c(O)c(=O)ccn2N([C@@H]2c3ccccc3SCc3c2ccc(F)c3F)[C@@H]2COCCN12 [BXA, Baloxavir acid]",decrease in the viral charge,[4]; 5 μM,88%
"CC/C=C\C[C@H](O)/C=C/C=C\C=C\[C@@H](O)C/C=C\C/C=C\CCC(=O)O [PDX, 10S, 17S-diHDA, reference compound]",inhibition at 5 µM,"[1]; Severe acute respiratory syndrome coronavirus 2, Vero C1008, 5 μM, VERO E6 cells, plaque reduction assay, read-out: SARS-COV-2 Inhibition (%)",0%
same,inhibition at 50 µM,"[1]; Severe acute respiratory syndrome coronavirus 2, Vero C1008, 50 μM, VERO E6 cells, plaque reduction assay, read-out: SARS-COV-2 Inhibition (%)",18%
same,IC50,[2]; [9],96 µM
same,release of interleukin-6 (IL-6),[5],induce the release
CC/C=C\C[C@H](O)/C=C/C=C\C=C\[C@@H](O)CCOc1cccc(CC(=O)O)c1 [PDX-21],nitrite production in LPS-induced J774 mice macrophages,[2],reduced nitrite production
CC/C=C\C[C@H](O)/C=C/C=C/C=C/[C@@H](O)CCN1CCCCC1 [PDX-10],IC50,[1]; [8],56 µM
same,nitrite production in LPS-induced J774 mice macrophages,[2],reduced nitrite production
same,IC50,[2]; [9],32 µM
